Results taken from US20110269790A1, “NOVEL THIENOPYRIDINES AS PHARMACOLOGICALLY ACTIVE AGENTS” (priority 2009, published 2011).
Values after ≈ are worked out from the molar mass of the structure shown.

Columns and labels:
[1] = target: T1, yeast α-glucosidase (Saccharomyces cerevisiae, UniProt P53341); test: In-vitro yeast α-glucosidase inhibition assay; type: biochemical, bakers yeast
T1 construct: α-Glucosidase [(EC 3.2.1.20) Type I: from bakers yeast]
From the text: (§1) Chemicals: α-Glucosidase [(EC 3.2.1.20) Type I: from bakers yeast], rat intestinal acetone powder (as a source of crude intestinal α-glucosidase), α-amylase [EC 3.2.1.1) Type VI B: from porcine pancreas], p-nitrophenyl α-D-glucopyranoside, 3,5-dinitro salicylic acid, soluble potato starch and 1-deoxyrojirimycine, were purchased from Sigma Chemical Co., St Louis, Mo., USA. Other chemicals of analytical grade were procured from indigenous manufacturers.
(§2) In-vitro a-Glucosidase Inhibition Assay: Yeast and intestinal a-glucosidase inhibitory activities were determined as per reported methods (Babu et al., 2004; Mc Dougall et al., 2005). Rat intestinal acetone powder in normal saline (100% w/v) was sonicated properly and the supernatant was used as a source of crude intestinal a-glucosidase after centrifugation. In brief, 20 μl, of test samples (100 mg/ml DMSO solution) were reconstituted in 100 μl of 100 mM-Phosphate buffer (pH 6.8) in a 96-well microplate and incubated with 50 μl yeast a-glucosidase (0.76 μ/ml in same buffer) or crude intestinal a-glucosidase for 5 min before 50-μl substrate (5 mM, […] prepared in same buffer) was added. Release of p-nitrophenyol was measured at 405 nm spectrophotometrically (Spectra Mas Plus 384, Molecular Device corporation, Sunnyvale, Calif., USA) 5 min after incubation with substrate, individual blank for test samples were prepared to correct background absorbance where the substrate was replaced with 50 μl of buffer. The control sample contained 20 μl DMSO in place of test samples. The percentage of enzyme inhibition was calculated as (A−B/A)×100 where A is represents the absorbance of the control without test samples, and B represents the absorbance in the presence of test samples. […] The IC50 values were calculated by applying logarithmic regression analysis from the mean inhibitory values.

[2] = system: crude intestinal α-glucosidase; test: In-vitro mammalian (rat intestinal) α-glucosidase inhibition assay; type: biochemical; conditions: for Mammalian α Glucosidase Inhibition (Mean ± S.E): highest concentration 5 mg/ml; for IC50: mammalian α-glucosidase, dose response study
From the text: as §1, §2

[3] = system: mice; test: Adenosine mediated bronchoconstriction and lung inflammation in an allergic mouse model; type: in vivo; parameters: Total count: unit not given here; conditions: BAL fluid cells; 100 mg/kg oral
Description: Thienopyridines were proven as potent cytotoxic and anti-inflammatory agents in the previous experimental results. In cytotoxic MTT assay, activity of these molecules may be due to the involvement of adenosine receptors. Further, to find the bronchodilatory activity of these moieties and to find the involvement of adenosine receptors in their action, non-invasive and invasive adenosine mediated bronchoconstriction and lung inflammation in an allergic mouse model was performed.
Male mice, 6-8 weeks of age, free of specific pathogens were obtained from National Institute of Nutrition. The animals were maintained on a ragweed-free diet. All experimental protocols used in this study were under a protocol approved by animal ethical committee. Sensitization was performed according to the modified procedure described by Fan et al, 2002. Mice were sensitized on days 1 and 6 with i.p. injections of ragweed allergen (200 μg/200 μl of water for injection). Non-sensitized control animals received only water for injection with the same volumes. Ten days after sensitization, the mice were placed in plexiglas chamber and challenged with 0.5% ragweed or with 0.9% saline as a control for twenty minutes both in the morning and evening for three days. Then mice were divided into different groups consisting of six animals each. The groups including a control without sensitization; a sensitized group and a standard group along with groups of the test molecules were separated. Twenty-four hours after last challenge with ragweed, the mice were given an oral dose of test molecules and theophylline (100 mg/kg body weight) as acacia suspension. Two hours after administration of the oral dose, the mice were challenged with adenosine solution (24 mg/ml). The variation in respiration was recorded after anaesthetizing them with pentobarbitone sodium (0.1 ml 200 mg/ml ip) using kymograph. Then, mice were sacrificed and trachea was cannulated to collect the bronchoalveolar lavage fluid. This was performed by pumping 1 ml phosphate buffered saline into lungs through tracheal cannula and collecting the sample. Analysis of BAL fluid was performed to get the cellular differentials. The BAL fluid was centrifugated at 1500 rpm for six minutes at room temparature. After removing the supernatant, BAL cells were resuspended in 1 ml of phosphate buffered saline. Total cells were then counted manually in a hemocytometer chamber. A differential count of at least 300 cells was made according to the standard morphologic criteria and results were mentioned in table.

T1 sequence (P53341 whole entry): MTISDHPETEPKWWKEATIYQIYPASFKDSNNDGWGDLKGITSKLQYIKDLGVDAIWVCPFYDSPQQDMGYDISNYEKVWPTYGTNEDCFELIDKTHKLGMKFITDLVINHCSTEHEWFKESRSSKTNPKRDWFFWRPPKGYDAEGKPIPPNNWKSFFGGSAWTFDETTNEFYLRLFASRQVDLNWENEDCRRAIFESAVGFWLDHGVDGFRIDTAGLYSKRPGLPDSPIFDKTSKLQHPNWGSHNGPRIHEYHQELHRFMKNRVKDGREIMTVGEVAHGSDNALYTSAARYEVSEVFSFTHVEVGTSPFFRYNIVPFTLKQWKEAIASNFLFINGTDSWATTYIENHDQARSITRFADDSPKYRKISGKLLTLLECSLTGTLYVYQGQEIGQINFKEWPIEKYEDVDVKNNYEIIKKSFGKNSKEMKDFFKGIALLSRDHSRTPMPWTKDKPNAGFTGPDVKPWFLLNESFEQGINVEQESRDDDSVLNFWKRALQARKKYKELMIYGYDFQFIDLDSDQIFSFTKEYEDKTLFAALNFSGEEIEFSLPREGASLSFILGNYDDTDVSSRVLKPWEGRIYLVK

| melting point [°C] | Compound | Yeast α-glucosidase enzyme inhibitory activity (in words) [1] | Mammalian α-glucosidase inhibitory activity (in words) [2] | Mammalian α Glucosidase Inhibition (Mean ± S.E) [2] [%] | Differential count (%) Eosinophils [3] [%] | Differential count (%) Lymphocytes [3] [%] | Differential count (%) Monocytes [3] [%] | Total count [3] | Mammalian α-glucosidase inhibition (Mean ± S.E) ([2]; 0.039063 mg/ml) [%] | Mammalian α-glucosidase inhibition (Mean ± S.E) ([2]; 0.078125 mg/ml) [%] | Mammalian α-glucosidase inhibition (Mean ± S.E) ([2]; 0.15625 mg/ml) [%] | Mammalian α-glucosidase inhibition (Mean ± S.E) ([2]; 0.3125 mg/ml) [%] | Mammalian α-glucosidase inhibition (Mean ± S.E) ([2]; 0.625 mg/ml) [%] | Mammalian α-glucosidase inhibition (Mean ± S.E) ([2]; 1.25 mg/ml) [%] | Mammalian α-glucosidase inhibition (Mean ± S.E) ([2]; 2.5 mg/ml) [%] | Mammalian α-glucosidase inhibition (Mean ± S.E) ([2]; 5 mg/ml) [%] | IC50 [2] [mg/mL] | other results |
| --- | --- | --- | --- | --- | --- | --- | --- | --- | --- | --- | --- | --- | --- | --- | --- | --- | --- | --- |
|  | CC1CCc2c(nc3sc4c(c3c2N)CCCC4)C1 (stereo not shown) [BN-7, 8-Methyl-1,2,3,4,7,8,9,10-octahydrobenzo[4,5]thieno[2,3-b]quinolin-11-amine] |  | moderate inhibitory activity | 50.19 ± 0.93 | 20 | 70 | 10 | 7 |  |  |  |  |  |  |  |  |  |  |
|  | Nc1c2c(nc3sc4c(c13)CCCC4)CCCC2 [BN-6, 1,2,3,4,7,8,9,10-Octahydrobenzo[4,5]thieno[2,3-b]quinolin-11-amine] | moderate inhibitory activity |  | 19.92 ± 1.27 | 15 | 75 | 10 | 10.5 |  |  |  |  |  |  |  |  |  |  |
| 255 | Nc1c2c(nc3sc4c(c13)CCCCC4)CCC2 [BN-18, 1,2,3,6,7,8,9,10-Octahydrocyclohepta[4,5] thieno[2,3-b]cyclopenta [e]pyridin-11-amine] | moderate inhibitory activity | moderate inhibitory activity | 46.22 ± 4.15 | 20 | 70 | 15 | 18 |  |  |  |  |  |  |  |  |  |  |
| 263.2 | CC1CCc2c(nc3sc4c(c3c2N)CCC4)C1 (stereo not shown) [BN-15, 7-Methyl-2,3,6,7,8,9-hexahydro-1H-cyclopenta[4,5]thieno[2,3-b]quinolin-10-amine] | moderate inhibitory activity | significant inhibitory activity | 88.87 | 10 | 63.5 | 16.5 | 13 | 11.85 ± 3.45 | 31.57 ± 2.74 | 40.72 ± 2.26 | 52.37 ± 1.64 | 61.83 ± 0.26 | 78.49 ± 1.88 | 83.34 ± 3.13 | 88.87 ± 1.35 | 0.299 (≈ 1160 µM) |  |
| 221 | Nc1c2c(nc3sc4c(c13)CCCC4)CCC2 [BN-5, 2,3,6,7,8,9-Hexahydro-1H-benzo[4,5]thieno[2,3-b]cyclopenta[e]pyridin-10-amine] | moderate inhibitory activity |  | 0.0 ± 0.0 |  |  |  |  |  |  |  |  |  |  |  |  |  |  |
|  | Nc1c2c(nc3sc4c(c13)CCCC4)CCCCC2 [BN-8, 2,3,4,7,8,9,10,11-Octahydro-1H-benzo[4,5]thieno[2,3-b]cyclohepta [e]pyridin-12-amine] |  |  | 10.76 ± 0.92 | 20 | 70 | 10 | 14 |  |  |  |  |  |  |  |  |  |  |
| 231 | Cc1sc2nc3c(c(N)c2c1C)CCC3 [BN-1, 2,3-dimethyl-6,7-dihydro-5H-cyclopenta[b]thieno[3,2-e]pyridin-4-amine] |  |  | 0.0 ± 0.0 | 12 | 65 | 20 | 12 |  |  |  |  |  |  |  |  |  |  |

| Compound | melting point [°C] | Yeast α-glucosidase enzyme inhibitory activity (in words) [1] | Mammalian α-glucosidase inhibitory activity (in words) [2] | Mammalian α Glucosidase Inhibition (Mean ± S.E) [2] [%] | Differential count (%) Eosinophils [3] [%] | Differential count (%) Lymphocytes [3] [%] | Differential count (%) Monocytes [3] [%] | Total count [3] | Mammalian α-glucosidase inhibition (Mean ± S.E) ([2]; 0.039063 mg/ml) [%] | Mammalian α-glucosidase inhibition (Mean ± S.E) ([2]; 0.078125 mg/ml) [%] | Mammalian α-glucosidase inhibition (Mean ± S.E) ([2]; 0.15625 mg/ml) [%] | Mammalian α-glucosidase inhibition (Mean ± S.E) ([2]; 0.3125 mg/ml) [%] | Mammalian α-glucosidase inhibition (Mean ± S.E) ([2]; 0.625 mg/ml) [%] | Mammalian α-glucosidase inhibition (Mean ± S.E) ([2]; 1.25 mg/ml) [%] | Mammalian α-glucosidase inhibition (Mean ± S.E) ([2]; 2.5 mg/ml) [%] | Mammalian α-glucosidase inhibition (Mean ± S.E) ([2]; 5 mg/ml) [%] | IC50 [2] [mg/mL] | other results |
| --- | --- | --- | --- | --- | --- | --- | --- | --- | --- | --- | --- | --- | --- | --- | --- | --- | --- | --- |
| Cc1sc2nc3c(c(N)c2c1C)CCCC3 [BN-2, 2,3-dimethyl-5,6,7,8-tetrahydrothieno[2,3-b]quinolin-4-amine] | 210 | strong significant inhibitory activity | moderate inhibitory activity | 40.0 ± 2.5 |  |  |  |  |  |  |  |  |  |  |  |  |  | inhibition at 39.063 µg/mL ([1]; yeast α-glucosidase, 0.039063 mg/ml, read-out: % Inhibition (Mean ± S.E)): 15.3 ± 2.69%; inhibition at 78.125 µg/mL ([1]; yeast α-glucosidase, 0.078125 mg/ml, read-out: % Inhibition (Mean ± S.E)): 20.1 ± 1.37%; inhibition at 156.25 µg/mL ([1]; yeast α-glucosidase, 0.15625 mg/ml, read-out: % Inhibition (Mean ± S.E)): 25.9 ± 0.44%; inhibition at 312.5 µg/mL ([1]; yeast α-glucosidase, 0.3125 mg/ml, read-out: % Inhibition (Mean ± S.E)): 33.4 ± 0.76%; inhibition at 625 µg/mL ([1]; yeast α-glucosidase, 0.625 mg/ml, read-out: % Inhibition (Mean ± S.E)): 39.2 ± 0.87%; inhibition at 1250 µg/mL ([1]; yeast α-glucosidase, 1.25 mg/ml, read-out: % Inhibition (Mean ± S.E)): 43.9 ± 1.92%; inhibition at 2500 µg/mL ([1]; yeast α-glucosidase, 2.5 mg/ml, read-out: % Inhibition (Mean ± S.E)): 53 ± 1.13%; inhibition at 5000 µg/mL ([1]; yeast α-glucosidase, 5 mg/ml, read-out: % Inhibition (Mean ± S.E)): 56.54 ± 0.28% |
| Nc1c2c(nc3sc4c(c13)CCC4)CCCCCC2 [BN-17, 2,3,6,7,8,9,10,11-Octahydro-1H-cycloocta [b]cyclopenta[4,5]thieno[3,2-e]pyridin-12-amine] | 256 |  | significant inhibitory activity | 75.39 | 25 | 75 | 9 | 9 | 10.04 ± 4.42 | 26.77 ± 1.83 | 34.53 ± 2.61 | 44.41 ± 1.52 | 52.44 ± 1.56 | 66.57 ± 1.11 | 70.69 ± 2.75 | 75.39 ± 13.76 | 0.528 (≈ 1940 µM) | Yeast α Glucosidase Inhibition (Mean ± S.E) ([1]; single concentration screen): 9.40 ± 4.49% |
| Nc1c2c(nc3sc4c(c13)CCC4)CCC2 [BN-13, 1,2,3,6,7,8-hexahydrocyclopenta [b]cyclopenta[4,5] thieno[3,2-e]pyridin-9-amine] | 245 | moderate inhibitory activity | significant inhibitory activity | 76.13 | 20 | 74 | 16.5 | 8 | 10.06 ± 1.36 | 27.07 ± 1.93 | 34.89 ± 2.28 | 44.87 ± 1.62 | 52.97 ± 1.47 | 67.24 ± 1.08 | 71.39 ± 1.82 | 76.13 ± 0.03 | 0.509 (≈ 2210 µM) |  |
